Measurements taken from patent US12637464B2, “Tetracyclic compounds for treating brain disorders” (The Regents of the University of California, priority 2021, dated 2026).

Assays:
[1] = system: C57BL/6J mice; assay: Head-twitch response (HTR) assay; type: in vivo, mouse
Protocol: Head-Twitch Response Assay. The HTR assay was performed using equal numbers of male and female C57BL/6J mice. The mice were obtained from The Jackson Laboratory (Sacramento, CA) and were approximately 8-12 weeks old at the time of the experiments. After compound administration, animals were placed into an empty arena (40 cm×40 cm) and filmed for 20 min. The arena was cleaned with 70% ethanol between trials. Animals were given a one-week washout period before being tested again. Animals were tested a maximum of 4 times. All drug treatments were randomized and no animal received the same drug and dose twice. For the blocking experiments, animals were administered (+)-JRT (1 mg/kg) or vehicle (saline) via IP injection and placed in an empty cage for 15 min. Animals were then administered LSD (0.2 mg/kg, IP), placed in the test arena, and filmed for 20 min. Videos were scored later by two blinded observers, and the results were averaged (Pearson correlation coefficient>0.9).

[2] = system: dendritic spine density in the PFC; assay: In vivo spinogenesis (electron microscopy); design: species or system C57BL/6J mice; details: single dose 1 mg/kg, 24 h after administration, 3 animals per group
Protocol: In Vivo Spinogenesis. Female C57BL/6J mice (Jackson Laboratory, Sacramento, C.A.) were treated with VEH (saline) or (+)-JRT (n=3/group). After 24 h, the animals were sacrificed via transcardial perfusion with oxygenated Ringer's solution followed by a fixative (2% paraformaldehyde, 2.5% glutaraldehyde, 3 mM calcium chloride in 0.1 M cacodylate buffer). Brains were carefully removed from the skull and post-fixed overnight in the same fixative. Brains were then rinsed with PBS and 100 μm coronal sections spanning the prefrontal cortex were collected using a vibrating microtome (Leica). Regions of the infralimbic cortex were microdissected according to the Allen brain atlas and processed further for electron microscopy. Briefly, samples were stained with buffered 1.5% reduced osmium tetroxide for 45 minutes, rinsed thoroughly, further stained with 1% aqueous uranyl acetate overnight at 4° C., dehydrated and embedded in Eponate 12 epoxy resin. A blockface that spanned from the medial cortical surface to the corpus collosum was trimmed and 150-250 serial ultrathin sections (55 nm) were collected onto silicon chips using diamond knives (Diatome) on an ultramicrotome (Leica). Serial sections on silicon chips were loaded into the scanning electron microscope (SEM; Zeiss Sigma VP) for imaging. […] Dendritic spine densities (spines/micron) were calculated for each volume.

Question: `CCN(CC)C(=O)[C@@H]1C=C2c3cccc4ccn(c34)C[C@H]2N(C)C1` [(+)-JRT] was tested. Which “HTR induced by LSD (antipsychotic properties)” value ([1]; (+)-JRT 1 mg/kg pretreatment, LSD 0.2 mg/kg) did it give?
Answer: antagonizing a HTR induced by LSD

Question: And the “hallucinogenic potential (mouse head-twitch response, agonist mode)” value ([1]; male and female mice, agonist mode)?
Answer: low hallucinogenic potential

Question: What about the “dendritic spine density in the PFC” value [2] of the same compound?
Answer: increases dendritic spine density
